One compound from US20240397979A1, “METHODS FOR DELIVERING BENEFICIAL NUTRIENTS TO INVERTEBRATES THROUGH A MICROORGANISM DEFICIENT IN ANTINUTRIENTS” (APIX BIOSCIENCES, priority 2021, published 2024) can be followed below.

For one data set, the system named is honey bees. Put plainly: Brood production of honey bee colonies on diets with ergosterol. Format: in vivo, Apis mellifera. Particulars: bee food with ergosterol vs without, FIGS. 3 and 4. The method, then:
Example 3 and 4. Brood Production: Honey Bees Cannot Produce Brood on Diets with high quantities of ergosterol Method: Fully functional insulated styrofoam […] nucs comprised 5 mini frames populated with adult workers and 1 mated laying queen bee were populated with 300-400 ml of young adult workers ( N<1,000 bees of mixed ages). […] Each treatment was tested with 3-6 colonies; each colony was fed with a 60-100 g patty (solid diet) on the top feeder fitted with a mesh floor. Diet was fed on the first day and again on day 6; the quantity consumed was measured on day 6 and day 15. If no larvae or eggs/queen are observed by day 6 then the experiment is terminated. The number of capped brood cells was counted every 15 days. The number of bee seams was estimated during each inspection. Sugar syrup (34%) and water was provided in feeders inside the tent to prevent carbohydrate starvation and to stimulate foraging activity.

For the next data set, the system named is bee gut. Kind of data set: Passage of dietary ergosterol across the bee gut. In kind it is in vivo. Particulars: ergosterol in bee diet.
The test system of another data set is adult worker honey bees. Kind of data set: Survival of bee cohorts on diets containing ergosterol. Format: in vivo, Apis mellifera. Particulars: bees fed diets containing ergosterol, FIG. 2. From the text:
Example 2: Survival: Bees are Less Likely to Survive on Diets Containing Ergosterol Method: Newly emerged adult worker honey bees fed with a diet treatment and ad libitum access to water. The treatment diet contained the ergosterol. Newly-emerged bees were removed from the brood frame and cohorts of 30 bees per replicate were housed in plastic rearing cages. In all experiments, 10 cohorts of ˜30 bees each were used for each treatment group. In all diets carbohydrate was maintained at 60% using powdered sugar and fat was maintained at 8% using an emulsion. Consumption of each diet was measured every day over the course of the experiment. The number of bees alive in the box was counted each day for 14 days.

The next data set relates to Nosema ceranae. Kind of data set: Nosema infection of bees fed ergosterol-containing diet. In kind it is in vivo. To be noted: diet supplemented with ergosterol, FIG. 5. From the text:
Method: Newly emerged adult worker honey bees (Apis mellifera) or adult worker bumble bees (Bombus terrestris) were reared in an assay to test whether diet induced an increase in Nosema ceranae infection. Bees had access to a diet composed of 15% protein, 6% fat, 78% carbohydrates and 1% vitamins and minerals and adlibitum access to water and sucrose solution. One treatment diet contained the ergosterol and the other contained no sterol. Newly emerged bees were removed from the brood frame and cohorts of 30 bees per replicate were housed in plastic rearing cages. In all experiments, 10 cohorts of ˜30 bees each were used for each treatment group. Consumption of each diet was measured every 24 h for 14 days.
Nosema ceranae infection of each cohort was produced as in Tischler et al. (2017). Briefly, Nosema spores were collected in 10 bees, concentrated and cultured. Cultures were added to 30% sucrose solutions and fed to the bees.

Data set [1] has as its system adult worker honey bees (Apis mellifera) or adult worker bumble bees (Bombus terrestris). Kind of data set: Two-choice preference assay: diet with ergosterol vs diet with no sterol. In kind it is in vivo. Particulars: feed containing ergosterol vs food without it, FIG. 1. The method, then: Example 1. Preference Assay: Bees Avoid Ergosterol in Foods Method: Newly emerged adult worker honey bees (Apis mellifera) or adult worker bumble bees (Bombus terrestris) were tested in a two-choice preference assay in which bees had access to two diets and adlibitum access to water. One treatment diet contained the ergosterol and the other contained no sterol. Newly emerged bees were removed from the brood frame and cohorts of 30 bees per replicate were housed in plastic rearing cages. In all experiments, 10 cohorts of ˜30 bees each were used for each treatment group. In all diets carbohydrate was maintained at 60% using powdered sugar and fat was maintained at 8% using an emulsion. Consumption of each diet was measured every 24 h for 5 days. Preference index was calculated as (amount of treatment consumed-amount of control consumed)/(total amount of food consumed).

`CC(C)[C@@H](C)/C=C/[C@@H](C)[C@H]1CC[C@H]2C3=CC=C4C[C@@H](O)CC[C@]4(C)[C@H]3CC[C@]12C` [ergosterol]: the Brood production entry in the data set with honey bees was “less brood”. The “Crossing of the bee gut” value in the data set with bee gut was “does not cross the bee gut”. Besides, in the data set with adult worker honey bees, the Lifespan result is listed as “shorter lifespans”. In addition, the “Nosema population in the gut” value in the data set with Nosema ceranae is “increases the Nosema population in the gut”. Also, in the data set with Nosema ceranae (bees inoculated with Nosema ceranae), the Mortality entry is “higher mortality”. Further, the Diet preference result in data set [1] is “bees actively avoid feed containing ergosterol”.
